Assay [1] addresses T1, Metabotropic glutamate receptor 5 (Homo sapiens, UniProt P41594). Description: Tested in vitro binding affinity for displacement of [3H]M-MPEP from membrane of L(-tk) cells expressing the Metabotropic glutamate receptor 5, activity expressed as IC50. A general note: Displacement assays read how much labelled ligand stays bound in the presence of the test substance.
Assay [2] deals with T1, Metabotropic glutamate receptor 5. Description: In vitro for inhibitory activity of compound against recombinant Metabotropic glutamate receptor 5 evaluated as inhibition of quisqualate-stimulated phosphoinositide (PI) hydrolysis. It counts as functional.

Drawing on ChEMBL document CHEMBL1135040, “[(3)H]-M-MPEP, a potent, subtype-selective radioligand for the metabotropic glutamate receptor subtype 5” (Bioorg Med Chem Lett, 2002), this text covers IC50 for two molecules.

T1 sequence (P41594 whole entry): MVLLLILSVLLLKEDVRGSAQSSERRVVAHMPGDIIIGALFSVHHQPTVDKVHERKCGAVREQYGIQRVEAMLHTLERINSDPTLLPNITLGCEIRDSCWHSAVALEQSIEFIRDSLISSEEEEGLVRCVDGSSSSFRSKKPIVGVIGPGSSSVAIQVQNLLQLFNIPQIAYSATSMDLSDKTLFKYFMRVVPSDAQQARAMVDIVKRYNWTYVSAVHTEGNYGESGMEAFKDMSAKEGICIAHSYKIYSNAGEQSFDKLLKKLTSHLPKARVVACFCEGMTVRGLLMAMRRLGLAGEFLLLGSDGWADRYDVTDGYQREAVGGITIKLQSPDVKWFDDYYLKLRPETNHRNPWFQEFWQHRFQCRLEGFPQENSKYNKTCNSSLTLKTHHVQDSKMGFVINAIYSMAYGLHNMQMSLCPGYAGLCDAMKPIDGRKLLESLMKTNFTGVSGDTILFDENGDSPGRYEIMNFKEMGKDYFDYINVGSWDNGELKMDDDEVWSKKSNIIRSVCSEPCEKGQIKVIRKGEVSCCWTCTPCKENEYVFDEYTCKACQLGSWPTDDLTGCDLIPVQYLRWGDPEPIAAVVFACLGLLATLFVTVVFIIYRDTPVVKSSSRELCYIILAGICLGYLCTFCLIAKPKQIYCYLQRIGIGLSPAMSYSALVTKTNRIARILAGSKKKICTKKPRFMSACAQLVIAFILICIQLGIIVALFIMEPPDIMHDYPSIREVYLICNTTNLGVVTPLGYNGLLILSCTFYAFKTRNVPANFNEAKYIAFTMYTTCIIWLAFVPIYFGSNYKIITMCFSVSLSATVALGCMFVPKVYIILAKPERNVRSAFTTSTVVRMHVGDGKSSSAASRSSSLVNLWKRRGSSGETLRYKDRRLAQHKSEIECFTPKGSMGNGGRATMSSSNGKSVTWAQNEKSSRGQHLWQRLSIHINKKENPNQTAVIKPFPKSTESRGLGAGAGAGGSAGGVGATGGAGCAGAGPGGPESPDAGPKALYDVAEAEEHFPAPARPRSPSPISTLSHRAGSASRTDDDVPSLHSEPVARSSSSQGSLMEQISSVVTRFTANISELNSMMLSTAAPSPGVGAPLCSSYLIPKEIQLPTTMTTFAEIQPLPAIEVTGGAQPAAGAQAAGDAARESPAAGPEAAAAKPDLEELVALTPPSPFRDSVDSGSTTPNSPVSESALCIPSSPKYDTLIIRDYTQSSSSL

Usually IC50 stands for the midpoint of a concentration-inhibition curve. With `Cc1cccc(/C=C/c2ccccc2)n1`, the concentration for half-maximal inhibition (IC50) in assay [1] was 1100 nM; in assay [2], 3000 nM.

Regarding `[3H]C([3H])([3H])OCc1cccc(C#Cc2cccc(C)n2)c1`, the half-maximal inhibitory concentration (IC50) in assay [1] turned out to be 3.6 nM; in assay [2], 10 nM.
